Holding throughout (format): cell-based
Test [1] deals with CAL-27 cells (human tongue squamous cell carcinoma cells). Briefly: alamarBlue proliferation assay with CAL-27 cells. The settings on record: Homo sapiens, 120 h, 20 μM, 5 days, relative to DMSO baseline level of 1.0, read-out: AVEw, weighted arithmetic mean of normalized fluorescence intensity values (Activity Range), CAL-27 proliferation. Here is the method: (§1) The antiproliferative activities of compounds falling under formula I, formula II, formula III, formula IV and formula V were investigated on cells or cell lines originating from a disorder of the myeloid cell compartment, the neuroendocrine system, the cervix, and the mucosal epithelium, as well as from the skin epithelium. To this end, HL-60 cells, TT cells, HeLa cells, CAL-27 cells and human primary epidermal keratinocytes (HPEK) were seeded into 96-well plates suitable for fluorescence assays (CORNING #3598) at following initial cell numbers: 1000 cells per well for HL-60; 9000 cells per well for TT; 2000 cells per well for HeLa, 2000 cells per well for CAL-27, 2000 cells per well for HPEK. The cells were treated with compounds at indicated final concentrations (diluted from the 1000× stock-solutions in DMSO to a final DMSO concentration of 0.1% v/v) or with the empty carrier DMSO at 0.1% v/v as control for 5 days. At day 5 after starting the treatments the cells were subjected to the alamarBlue® Proliferation Assay (Bio-Rad Serotec GmbH, BUF012B) according to the protocol of the manufacturer. The readout was taken with a multi-well plate-reader in the fluorescence mode with applying a filter for excitation at 560 nm (band width 10 nm) and for emission at 590 nm (band width 10 nm). Resveratrol (RES) treatment was included as control for growth inhibition.
(§2) The assays were performed in duplicate or more replicates of independent single experiments each containing a six-fold replicate for every condition. For every individual plate, the measured fluorescence intensity values of the conditions with compound treatment were normalized against the corresponding equally weighted arithmetic mean of the fluorescence intensity values of the six DMSO treated control wells in order to obtain the relative values to a baseline level of 1.0. The statistical calculations were performed in analogy to the luciferase assay as described above. To this end, two independent outlier analyses were performed according to the methods by Peirce and Chauvenet (Ross, Journal of Engineering Technology 2003, 1-12). Outliers confirmed by at least one of the methods were excluded from the calculations but not more than one value out of six per compound within a single experiment. The weighted arithmetic mean AVEw for each compound was calculated from the normalized values over all independent replicates of the single experiments comprising the six replicates each. The corresponding standard deviation for the weighted arithmetic mean was calculated according to the method described by Bronstein et al. (Bronstein, Semendjajew, Musiol, Mühlig, Taschenbuch der Mathematik, 5th edition 2001 (German), publisher: Verlag Harri Deutsch, Frankfurt am Main and Thun) and was combined with the Gauß′ error propagation associated with the performed calculation for the normalization. The resulting standard deviation is herein referred to as “combined standard deviation”.
CAL-27 cells were cultivated according to the protocol of the provider (but at 5% instead of 10% CO2) in DMEM medium (Fisherscientific, #11584456) containing 10% fetal bovine serum (Fisherscientific, #15517589).
(§3) A compound is considered as a growth inhibitor of CAL-27 cells, if—at a reference concentration of 20 μM—the weighted arithmetic mean of the normalized fluorescence intensity values after addition of the corresponding combined standard deviation amounts to 0.9 or lower, in particular to 0.8 or lower, 0.7 or lower, 0.6 or lower, 0.4 or lower, and 0.2 or lower, relative to the overall basis level of 1.0. The overall basis level was calculated as the weighted arithmetic mean of all normalized values from the DMSO control measurements in analogy to the calculations performed for the test-compounds. The corresponding combined standard deviation for the DMSO values amounts to less than 1·10^−2.

The subject of test [2] is HL-60 cells (human acute myeloid leukemia cells). Briefly: alamarBlue proliferation assay with HL-60 cells. As to conditions: 120 h, 5 days, relative to DMSO baseline level of 1.0, read-out: AVEw, weighted arithmetic mean of normalized fluorescence intensity values (Activity Range), HL-60 proliferation. Here is the method:
as §1, §2
HL-60 cells were cultivated according to the protocol of the provider in RPMI 1640 medium (Fisherscientific, #11554526) containing 10% fetal bovine serum (Fisherscientific, #15517589).
as §3, with “HL-60” for “CAL-27”
(In general: Alamar Blue is a resazurin reagent that responds to reducing activity.)

Test [3] has as its system Notch signaling (hNotch1ΔE, human Notch1 receptor) in HeLa cells. Briefly: Notch reporter assay (luciferase luminescence readout in transfected HeLa cells). As to conditions: Homo sapiens, 20 hours, relative to DMSO baseline level of 1.0, read-out: AVEw, weighted arithmetic mean of double-normalized Notch-reporter luciferase luminescence values (Activity Range). Here is the method: An according Notch-reporter assay, i.e. a luciferase-based luminescence readout, was used here to quantify the ability of the claimed small molecules to augment Notch signaling in a cellular system. For this purpose, HeLa cells, obtainable from the American Type Culture Collection (ATCC) under the accession number ATCC-CCL-2, were transiently transfected for 24 hours using FuGENE® HD (Promega, #E2311) as transfection reagent with expression vectors of a membrane-tethered form of the constitutively active intracellular domain of the human Notch1 receptor (hNotch1ΔE) to activate the signaling cascade (BPS Bioscience, human analogue to Notch Pathway Reporter Kit #60509 component C), a Firefly luciferase being expressed under the control of a Notch-responsive promoter to monitor Notch signaling (BPS Bioscience, Notch Pathway Reporter Kit #60509, CSL luciferase reporter vector from component A not premixed with Renilla luciferase vector), and a Renilla luciferase being constitutively expressed in a Notch signaling independent manner to include a measure for the cell number per sample (Promega, pRL-SV40, #E2231). HeLa cells were cultivated according to the protocol of the provider in DMEM medium (Fisherscientific, #11584456) containing 10% fetal bovine serum (Fisherscientific, #15517589). The transfection was carried out in a 100 mm-culture dish (StarLab, #CC7682-3394) with cells being properly attached to the plate at a cell confluency of 80-90% in a total volume of 7 mL culture medium. Per dish to be transfected, a transfection mix was prepared by adding to 238 μL Opti-MEM (Fisherscientific, #10149832) 40 μL of the hNotch1ΔE expression vector (100 ng/μL), 80 μL of the CSL luciferase reporter vector (40 ng/μL), 4 μL of the pRL-SV40-Renilla luciferase vector (10 ng/μL), and in the last step 18.1 μL of FuGENE® HD. After addition of FuGENE® HD the transfection mix was let stand for 15 min at room temperature and hereafter equally distributed into the culture dish. Subsequently, i.e. after 24 hours of transfection, the transfected cells (10.000 cells per well) were incubated with the test-compounds at a final concentration of 10 μM (diluted from 10 mM stock-solutions in DMSO to a final DMSO concentration of 0.1% v/v) or with the empty carrier DMSO at 0.1% v/v as control for 20 hours in 96-well plates suitable for luminescence readouts (CORNING, #3610). Hereafter, the cells were lysed with 30 μL per well of Passive Lysis Buffer (Promega, #E194A, component of Dual-Luciferase® Reporter Assay System, #E1910) and the Firefly as well as Renilla luciferase values were measured with a luminescence reader with applying 15 μL per well each of the corresponding enzyme substrates needed to create the luminescence signals (Promega, Dual-Luciferase® Reporter Assay System, #E1910).
The suitability of the assays for monitoring Notch signaling was controlled by additionally including a generally accepted commercial Notch inhibitor, i.e. DAPT, as negative control, as well as the reported Notch enhancer resveratrol (RES) as positive control (Pinchot et al., Cancer 2011, 117, 1386-1398; Truong et al., Ann. Surg. Oncol. 2011, 18, 1506-1511; Yu et al., Mol. Cancer Ther. 2013, 12, 1276-1287). Both control compounds were likewise tested at 10 μM.
Per single experiment the measurement was performed in six replicates per compound. For every compound, this experiment was repeated in three or more independent replicates. The values of the Notch-reporter luciferase were normalized by division through the corresponding individual Notch-independent Renilla values in order to eliminate the impact of variation in the absolute cell-numbers in between the samples. For every individual plate, a second normalization was performed against the equally weighted arithmetic mean (here abbreviated as AVE) of the six associated Renilla-normalized DMSO-control values within a single experiment in order to obtain the relative values to a baseline level of 1.0. […]
In general terms: In a reporter assay the amount or activity of a reporter protein is the signal.

Experimental findings from patent US12600696B2 (XENIOPRO GMBH, priority 2017, dated 2026) are described below.

Some results are limits rather than exact numbers.

`Cc1ccc(Oc2ccc(C(=O)NO)cc2)cc1` [Compound 164, N-hydroxy-4-(p-tolyltoxy)benzamide]: the activity at 20 µM in test [1] lay within 70 to 80%; in test [2], 40 to 60%.
Consider `CC(C)c1ccc(Oc2ccc(C(=O)N(C)C)cc2)cc1` [Compound 221, 4-(4-isopropylphenoxy)-N,N-dimethylbenzamide], for which the fold induction at 10 µM in test [3] fell in the range of 1.1 to 1.2. The activity at 20 µM in test [2] is 40 to 60%.
On the same counts, the results for `CN(C)C(=O)c1ccc(Oc2ccc(C(C)(C)C)cc2)cc1` [Compound 222, 4-(4-(tert-Butyl)phenoxy)-N,N-dimethylbenzamide] are 1.2 to 1.3 and 60 to 70%.
As for `Cc1ccc(Oc2ccc(C(=O)N(C)C)cn2)cc1` [Compound 316, N,N-dimethyl-6-(p-tolyloxy)nicotinamide], the fold induction at 10 µM in test [3] fell in the range of 1.2 to 1.3. The activity at 20 µM in test [2] lay within 80 to 90%.
In the case of `CCc1ccc(Oc2ccc(C(=O)N(C)C)cn2)cc1` [Compound 317, 6-(4-ethylphenoxy)-N,N-dimethylnicotinamide], the fold induction at 10 µM in test [3] lay in the range of 1.4 to 1.7. For the same compound, the activity at 20 µM in test [2] lay within 80 to 90%.
As for `CCCc1ccc(Oc2ccc(C(=O)N(C)C)cn2)cc1` [Compound 318, N,N-dimethyl-6-(4-propylphenoxy)nicotinamide], the fold induction at 10 µM in test [3] is 1.7 to 2. Besides, the activity at 20 µM in test [2] lay within 40 to 60%.
For the compound `CCCCc1ccc(Oc2ccc(C(=O)N(C)C)cn2)cc1` [Compound 319, 6-(4-butylphenoxy)-N,N-dimethylnicotinamide], in test [3], the fold induction at 10 µM fell in the range of 1.3 to 1.4. Moreover, the activity at 20 µM in test [2] was in the range of 40 to 60%.
As to `CC(C)c1ccc(Oc2ccc(C(=O)N(C)C)cn2)cc1` [Compound 322, 6-(4-Isopropylphenoxy)-N,N-dimethylnicotinamide], the fold induction at 10 µM in test [3] was at least 2. Besides, the activity at 20 µM in test [2] is 70 to 80%.
In the case of `CN(C)C(=O)c1ccc(Oc2ccc(C(F)(F)F)cc2)nc1` [Compound 325, N,N-dimethyl-6-(4-(trifluoromethyl)phenoxy)nicotinamide], in test [3], the fold induction at 10 µM was in the range of 1.2 to 1.3. For the same compound, the activity at 20 µM in test [2] was in the range of 80 to 90%.
For the compound `CN(C)C(=O)c1ccc(Oc2ccc(C3C[C@@H]4CC[C@H]3C4)cc2)nc1` (stereo partly drawn) [Compound 336, 6-(4-((1S,4R)-bicyclo[2.2.1]heptan-2-yl)phenoxy)-N,N-dimethylnicotinamide], in test [3], the fold induction at 10 µM lay in the range of 1.4 to 1.7. Also, the activity at 20 µM in test [2] is 60 to 70%.
On the same counts, the results for `CN(C)C(=O)c1ccc(Oc2ccc(C3CC4CCC3CC4)cc2)nc1` (stereo not shown) [Compound 337, 6-(4-((1s,4s)-bicyclo[2.2.2]octan-2-yl)phenoxy)-N,N-dimethylnicotinamide] are 1.4 to 1.7 and 80 to 90%.
The like results for `COC(=O)c1ccc(Oc2ccc(C3CCCCC3)cc2)c(F)c1` [Compound 385, methyl 4-(4-cyclohexylphenoxy)-3-fluorobenzoate] were, in that order, 1.4 to 1.7 and 80 to 90%.
In the case of `CCCCc1ccc(Oc2ccc(C(=O)OCC)cc2F)cc1` [Compound 395, Ethyl 4-(4-butylphenoxy)-3-fluorobenzoate], the fold induction at 10 µM in test [3] was in the range of 1.4 to 1.7. Also, the activity at 20 µM in test [2] is 80 to 90%.
With `CCOC(=O)c1ccc(Oc2ccc(C(C)(C)CC)cc2)c(F)c1` [Compound 399, ethyl 3-fluoro-4-(4-(tert-pentyl)phenoxy)benzoate], the fold induction at 10 µM in test [3] lay within 1.1 to 1.2. Further, in test [2], the activity at 20 µM fell in the range of 80 to 90%.
The like results for `CCOC(=O)c1ccc(Oc2ccc(C3CCCCC3)cc2)c(F)c1` [Compound 410, ethyl 4-(4-cyclohexylphenoxy)-3-fluorobenzoate] were, in that order, 1.4 to 1.7 and 70 to 80%.
For `COC(=O)c1ccc(Oc2ccc(C3(C(F)(F)F)CC3)cc2)cc1` [Compound 712, Methyl 4-(4-(1-(trifluoromethyl)cyclopropyl)phenoxy)benzoate], the fold induction at 10 µM in test [3] was 1.1 to 1.2. Also, the activity at 20 µM in test [2] was in the range of 80 to 90%.
For `CN(C)C(=O)c1ccc(Oc2ccc(C3(C(F)(F)F)CC3)cc2)cc1` [Compound 784, N,N-Dimethyl-4-(4-(1-(trifluoromethyl)cyclopropyl)phenoxy)-benzamide], the fold induction at 10 µM in test [3] was in the range of 1.2 to 1.3. In test [2], the activity at 20 µM is 40 to 60%.
